In patent publication US8377974B2 (Millennium Pharmaceuticals, Inc., priority 2004, dated 2013) one finds IC50 data, which are given here for 23 molecules.

The experiment deals with T1, human plasma protein factor Xa (Homo sapiens, UniProt P00742).
T1 construct: measure proteolytic activity of the enzyme (factor Xa); purchased Haematologic Technologies (Essex Junction, Vt.); host or cells: human plasma
T1 sequence (P00742 235-488 limits assumed): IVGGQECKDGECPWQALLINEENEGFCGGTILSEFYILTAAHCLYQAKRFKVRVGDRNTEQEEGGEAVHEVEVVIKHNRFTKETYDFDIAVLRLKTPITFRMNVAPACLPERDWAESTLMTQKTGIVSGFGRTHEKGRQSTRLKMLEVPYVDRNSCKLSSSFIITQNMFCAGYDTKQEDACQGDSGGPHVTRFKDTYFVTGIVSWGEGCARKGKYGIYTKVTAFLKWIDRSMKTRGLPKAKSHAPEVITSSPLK
T1 sequence (P00742 41-179 partner limits assumed): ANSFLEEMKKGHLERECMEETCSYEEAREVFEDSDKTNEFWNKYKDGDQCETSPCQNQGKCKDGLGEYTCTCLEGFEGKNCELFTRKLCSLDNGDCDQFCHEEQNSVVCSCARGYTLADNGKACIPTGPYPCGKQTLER
Nature of the experiment: Factor Xa IC50 determination: cleavage of paranitroanilide substrate S-2765 in 96-well plates. The class given is biochemical. The conditions noted are these: fXa 1 nM, S-2765 100 μM, Tris buffered saline pH 7.4, room temperature. The essentials:
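Initial rates of S-2765 (100 μM final) cleavage, read at 405 nm for 2 min, fitted with a four-parameter equation to give IC50. Enzyme: 1 nM human plasma fXa, 5 min room-temperature preincubation with inhibitor (0.01 nM–10 μM) in 20 mM Tris, 150 mM NaCl, 5 mM CaCl2, 0.1% BSA, 5% DMSO, pH 7.4; duplicates.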
The term IC50 denotes the concentration needed to halve the response being measured. Higher therefore signals weaker potency. `CN(Cc1cc(-c2ccc(C(N3CCC3)=[N+]3CCC3)cc2)no1)C(=O)c1ccc(Cl)s1` [Example 41, 5-Chloro-thiophene-2-carboxylic acid {3-[4-(azetidin-1-yl-azetidin-1-ylidene-methyl)-phenyl]-isoxazol-5-ylmethyl}-methyl-amide] displayed an IC50 of at least 500 nM. The molecule `O=C(NCc1cc(-c2ccc(-c3ccncc3)cc2)no1)c1ccc(Cl)s1` [Example 193, 5-Chloro-thiophene-2-carboxylic acid [3-(4-pyridin-4-yl-phenyl)-isoxazol-5-ylmethyl]-amide] had an IC50 of at most 100 nM. As for `N=C(c1ccc(-c2nc(CNC(=O)c3ccc(Cl)s3)co2)cc1)N1CCC(C(N)=O)CC1` [Example 347, 1-((4-(4-((2-Chlorothiophene-5-carboxamido)methyl)oxazol-2-yl)phenyl)(imino)methyl)piperidine-4-carboxamide], the figure is 100 to 500 nM; as for `O=C(NCc1nc(-c2ccc(-n3ccccc3=O)cc2)no1)c1ccc(Cl)s1` [Example 311, 5-Chloro-N-((3-(4-(2-oxopyridin-1(2H)-yl)phenyl)-1,2,4-oxadiazol-5-yl)methyl)thiophene-2-carboxamide], at most 100 nM.

`CN(C)c1cc(C(=N)N2CCCCC2)ccc1C1=NOC(CNC(=O)c2ccc(Cl)s2)C1` (centres unmarked) [Example 77, 5-Chloro-thiophene-2-carboxylic acid {3-[2-dimethylamino-4-(imino-piperidin-1-yl-methyl)-phenyl]-4,5-dihydro-isoxazol-5-ylmethyl}-amide] came in with an IC50 of at most 100 nM. As for `CSc1cc(C(=N)N2CCCCC2)ccc1C1=NOC(CNC(=O)c2ccc(Cl)s2)C1` (centres unmarked) [Example 139, 5-Chloro-thiophene-2-carboxylic acid {3-[4-(imino-piperidin-1-yl-methyl)-2-methylsulfanyl-phenyl]-4,5-dihydro-isoxazol-5-ylmethyl}-amide], the figure is at most 100 nM. `CNC(=N)c1ccc(-c2cc(CN(C)C(=O)c3ccc(Cl)s3)on2)cc1` [Example 48, 5-Chloro-thiophene-2-carboxylic acid methyl-{3-[4-(N-methylcarbamimidoyl)-phenyl]-isoxazol-5-ylmethyl}-amide]: the IC50 was at most 100 nM. As for `O=C(NCC1CC(c2ccc(-c3ccccc3CN3CCCCCC3)cc2)=NO1)c1ccc(Cl)s1` (centres unmarked) [Example 201, 5-Chloro-thiophene-2-carboxylic acid [3-(2′-azepan-1-ylmethyl-biphenyl-4-yl)-4,5-dihydro-isoxazol-5-ylmethyl]-amide], the figure is at least 500 nM; as for `CSc1ccccc1-c1ccc(C2=NOC(CNC(=O)c3ccc(Cl)s3)C2)cc1` (centres unmarked) [Example 185, 5-Chloro-thiophene-2-carboxylic acid [3-(2′-methylsulfanyl-biphenyl-4-yl)-4,5-dihydro-isoxazol-5-ylmethyl]-amide], at least 500 nM. In turn, `COCCN(C)C(=N)c1ccc(-c2cc(CN(C)C(=O)c3ccc(Cl)s3)on2)cc1` [Example 46, 5-Chloro-thiophene-2-carboxylic acid (3-{4-[N-(2-methoxy-ethyl)-N-methyl-carbamimidoyl]-phenyl}-isoxazol-5-ylmethyl)-methyl-amide] gave a half-maximal inhibitory concentration (IC50) of at least 500 nM.

In turn, `O=C(NCc1cn(-c2ccc(N3CCCCC3=O)cc2)nn1)c1ccc(Cl)s1` [Example 300, 5-Chloro-N-((1-(4-(2-oxopiperidin-1-yl)phenyl)-1H-1,2,3-triazol-4-yl)methyl)thiophene-2-carboxamide] gave an IC50 of at most 100 nM.

`CSc1cc(C(=N)N(C)C)ccc1C1=NOC(CNC(=O)c2ccc(Cl)s2)C1` (centres unmarked) [Example 136, 5-Chloro-thiophene-2-carboxylic acid {3-[4-(N,N-dimethyl-carbamimidoyl)-2-methylsulfanyl-phenyl]-4,5-dihydro-isoxazol-5-ylmethyl}-amide]: the IC50 was at most 100 nM. Take `O=C(NCc1cc(-c2cccc(-c3ccccc3CN3CCCC3)c2)no1)c1ccc(Cl)s1` [Example 269, 5-Chloro-thiophene-2-carboxylic acid [3-(2′-pyrrolidin-1-ylmethyl-biphenyl-3-yl)-isoxazol-5-ylmethyl]-amide]: the IC50 is at most 100 nM. The figure for `Nc1ccc(-c2cc(CNC(=O)c3ccc(Cl)s3)on2)cc1` [Example 161, 5-Chloro-thiophene-2-carboxylic acid [3-(4-amino-phenyl)-isoxazol-5-ylmethyl]-amide] is at most 100 nM; for `CN(C)c1cc(C(=N)N2CCCCC2)ccc1-c1cc(CNC(=O)c2ccc(Cl)s2)on1` [Example 97, 5-Chloro-thiophene-2-carboxylic acid {3-[2-dimethylamino-4-(imino-piperidin-1-yl-methyl)-phenyl]-isoxazol-5-ylmethyl}-amide] it is at most 100 nM; for `CC1(CNC(=O)c2ccc(Cl)s2)CC(c2ccc(C(N3CCC3)=[N+]3CCC3)cc2)=NO1` (centres unmarked) [Example 63, 5-Chloro-thiophene-2-carboxylic acid {3-[4-(azetidin-1-yl-azetidin-1-ylidene-methyl)-phenyl]-5-methyl-4,5-dihydro-isoxazol-5-ylmethyl}-amide] it is at most 100 nM. `O=C(NCC1CC(c2ccc(N3CCCCC3=O)cc2)=NO1)c1ccc(Cl)s1` (centres unmarked) [Example 241, 5-Chloro-thiophene-2-carboxylic acid {3-[4-(2-oxo-piperidin-1-yl)-phenyl]-4,5-dihydro-isoxazol-5-ylmethyl}-amide] came in with an IC50 of 100 to 500 nM. The figure for `COc1ccc(Nc2ccc(-c3cc(CNC(=O)c4ccc(Cl)s4)on3)cc2)cc1` [Example 251, 5-Chloro-thiophene-2-carboxylic acid {3-[4-(4-methoxy-phenylamino)-phenyl]-isoxazol-5-ylmethyl}-amide] is at least 500 nM; for `N=C(c1ccc(-n2cc(CNC(=O)c3ccc(Cl)s3)nn2)cc1)N1CCC1` [Example 317, N-((1-(4-(Azetidin-1-yl(imino)methyl)phenyl)-1H-1,2,3-triazol-4-yl)methyl)-5-chlorothiophene-2-carboxamide] it is at most 100 nM. The figure for `CN(C)Cc1cccc(-c2cccc(-c3cc(CNC(=O)c4ccc(Cl)s4)on3)c2)c1` [Example 270, 5-Chloro-thiophene-2-carboxylic acid [3-(3′-dimethylaminomethyl-biphenyl-3-yl)-isoxazol-5-ylmethyl]-amide] is at least 500 nM. As for `CCOc1cc(C2=NCCN2C)ccc1-c1cc(CNC(=O)c2ccc(Cl)s2)on1` [Example 123, 5-Chloro-thiophene-2-carboxylic acid {3-[2-ethoxy-4-(1-methyl-4,5-dihydro-1H-imidazol-2-yl)-phenyl]-isoxazol-5-ylmethyl}-amide], the figure is at most 100 nM.

Molecule `O=C(NCC1CC(c2ccc(N3CCCC3=O)cc2)=NO1)c1ccc(Cl)s1` (centres unmarked) [Example 240, 5-Chloro-thiophene-2-carboxylic acid {3-[4-(2-oxo-pyrrolidin-1-yl)-phenyl]-4,5-dihydro-isoxazol-5-ylmethyl}-amide] came in with an IC50 of at most 100 nM.

`O=C(NCC1CC(c2cccc(-c3ccncc3)c2)=NO1)c1ccc(Cl)s1` (centres unmarked) [Example 275, 5-Chloro-thiophene-2-carboxylic acid [3-(3-pyridin-4-yl-phenyl)-4,5-dihydro-isoxazol-5-ylmethyl]-amide]: the IC50 was at least 500 nM.
